Reference: patent US20080255244A1, “CaM Kinase II Inhibitor Improves Retinoic Acid Therapy and Inhibits the Proliferation of Myeloid Leukemia Cells” (Fred Hutchinson Cancer Research Center, priority 2007, published 2008)

How the values were obtained:
Format in all cases: cell-based, human
[1] = test system: C/EBPε expression in HL60; assay: Western blot of C/EBPε expression in HL60 cells; conditions: ATRA 1 uM
Method: FIG. 6. Retinoic acid induces changes in the association of CaMKIIγ with the C/EBPε promoter RARE. […] (B) The human C/EBPε 5′ region indicating the location of the ChIP PCR primers. (C) ChIP assays. HL60 cell chromatin from cells treated with ATRA (1 uM) for the indicated time was immunoprecipitated with the indicated antibodies, the DNA isolated and subjected to PCR utilizing the indicated C/EBPε promoter primer pairs.
Protein extracts, Western blotting and co-immunoprecipitations. Westerns and co-immunoprecipitations were performed as previously detailed (Si, J., and Collins, S. J., Blood 100:4401-4409 (2002)).

[2] = test system: activated CaMKIIγ in THP1 cells; assay: Western blot of CaMKIIγ autophosphorylation in THP1 cells; conditions: five days ATRA
Method: (§1) FIG. 9. Terminal differentiation/apoptosis of myeloid leukemia cells is associated with decreased CaMKIIγ activation. (A) Lysates from the HL60, NB4 and U937 myeloid cell lines treated with ATRA (1 μM) for the indicated period of time were subjected to Western blots. (B) Lysates from the indicated myeloid cell lines treated for five days with the indicated concentration of ATRA were subjected to Western blots. (C) Lysates from HL60 cells treated with TPA (0.1 μM) for the indicated time were subjected to Western blots. (D) Lysates from NB4 cells treated with arsenic trioxide (1 uM) for the indicated time were subjected to Western blots.
(§2) Antibodies and Western blots. Protein extracts, immunoprecipitations and Western blots were performed as previously detailed (Si J, Collins S J. IL-3-induced enhancement of retinoic acid receptor activity is mediated through Stat5, which physically associates with retinoic acid receptors in an IL-3-dependent manner. Blood 100: 4401-9 (2002)). Antibodies against CaMKI, CaMKIIγ, CaMKIV, c-myc, Stat3, Stat5, calmodulin, as well as the phosphospecific CaMKII (T286, 287) and phosphospecific CaMKI (T177) antibodies were from Santa Cruz Biotechnology. […]

[3] = test system: activated CaMKIIγ in HL60R cells; assay: Western blot of CaMKIIγ autophosphorylation in HL60R cells; conditions: five days ATRA
Method: as §1, §2

[4] = test system: Kasumi cells; assay: Differentiation of Kasumi cells; conditions: preliminary studies; not shown
From the text: (§3) Pharmacological CaMK inhibitors trigger myeloid leukemia cell differentiation. Particularly compelling evidence for the physiological importance of the CaMKII—mediated regulation of RAR activity is our experimental observation that KN-62, a pharmacological inhibitor of the CaMKs, enhances both RAR transcriptional activity (FIG. 1B) and the differentiation of certain myeloid leukemia cell lines (FIG. 7). Acute myelogenous leukemia (AML) is a heterogenous disease, and successful therapy with RA has been generally confined to those leukemias harboring RARα chromosome translocations.

[5] = test system: HL60R cells (mutated RARα); assay: Differentiation of HL60R cells; conditions: HL60R harbor a mutated RARα
From the text: as §3

[6] = test system: KCL-22 cells; assay: Differentiation of KCL-22 cells; conditions: preliminary studies; not shown
From the text: as §3

[7] = test system: Kasumi cells; assay: Kasumi proliferation in liquid suspension culture
Method: (§4) FIG. 11. […] (A) K562 cells were seeded in liquid suspension culture at 5×10^4 cells/ml in the presence or absence of the indicated concentration of compounds, and cell counts were obtained at the indicated time. (B) The indicated myeloid leukemia cell lines were seeded in liquid suspension culture at 5×10^4 cells/ml in the presence or absence of KN93, and cell counts obtained at the indicated time. (C) K562 cells were electroporated with the LXSN expression vector harboring the kinase dead, Lys^43 mutated, truncated CaMKII construct (kdCaMKII) as well as with the control (empty) LXSN vector. The electroporated cells were diluted into 96 well plates in liquid suspension culture in the presence of G418 (1 mg/ml). Following eight days of culture the total number of discrete, actively proliferating G418 resistant colonies within individual wells was determined.
(§5) Cell lines. All leukemia cell lines are cultured at 37° in RPMI supplemented with 5% heat-inactivated fetal calf serum.

[8] = test system: THP1 cells; assay: THP1 proliferation in liquid suspension culture
Method: as §4, §5

[9] = test system: K562 cells; assay: Western blots of signal transduction pathways in K562 cells; conditions: K562 cultured in KN93
Method: FIG. 12. CaMKII regulates multiple signal transduction pathways in myeloid cells. (A,B) Lysates from K562 cells cultured for the indicated time in KN93 were subjected to Western blots. (C) The K562 cells transduced as described in Materials and Methods with either (i) the doxycycline (DOX) inducible expression vector/transactivator harboring the full length, Lys^43 mutated, kinase dead CaMKIIγ (kdCaMKIIγ (Tet-on)) or (ii) the CaMKII shRNA generating plasmids, were cultured in liquid suspension in the presence or absence of DOX as indicated, and cell counts obtained after 48 hours. (D) Lysates from K562 cells transduced with the indicated vectors were subjected to Western blots utilizing the indicated antibodies. For lanes 2 and 4 doxycycline (DOX) treatment was for two days.
Antibodies and Western blots. Protein extracts, immunoprecipitations and Western blots were performed as previously detailed (Si J, Collins S J. IL-3-induced enhancement of retinoic acid receptor activity is mediated through Stat5, which physically associates with retinoic acid receptors in an IL-3-dependent manner. Blood 100: 4401-9 (2002)). Antibodies against CaMKI, CaMKIIγ, CaMKIV, c-myc, Stat3, Stat5, calmodulin, as well as the phosphospecific CaMKII (T286, 287) and phosphospecific CaMKI (T177) antibodies were from Santa Cruz Biotechnology. Antibodies against phospho-Stat1 (Ser727), phospho-Stat3 (Ser727 and Tyr 705), phospho-Stat5 (Tyr 694), phospho-p44/42 MAP kinase (Thr202/Tyr 204), p44/42 MAP kinase, phospho-p38 MAP kinase (Thr 180/Tyr 182), phospho-GSK3β (Ser9) were from Cell Signaling Technology. Antibodies against Stat1, GSK3β, β-catenin, PP2Ac, and cyclin D1 were from BD Biosciences.

Structure (SMILES): CC1=C(/C=C/C(C)=C/C=C/C(C)=C/C(=O)O)C(C)(C)CCC1 [ATRA, All-trans retinoic acid]
- C/EBPε expression [1]: enhanced
- activated CaMKIIγ level [2]: did not exhibit any decrease
- activated CaMKIIγ level [3]: not observed

Structure (SMILES): CN([C@@H](Cc1ccc(OS(=O)(=O)c2cccc3cnccc23)cc1)C(=O)N1CCN(c2ccccc2)CC1)S(=O)(=O)c1cccc2cnccc12 [KN-62]
- differentiation of Kasumi [4]: does not induce
- KN62-mediated differentiation of HL60R [5]: do not observe any
- differentiation of KCL-22 [6]: does not induce

Structure (SMILES): COc1ccc(S(=O)(=O)N(CCO)c2ccccc2CN(C)C/C=C/c2ccc(Cl)cc2)cc1 [KN-93]
- cell proliferation [7]: inhibition
- cell viability or morphologic differentiation [7]: without any significant effect
- cell proliferation [8]: inhibition
- cell viability or morphologic differentiation [8]: without any significant effect
- GSK3β Ser9 phosphorylation [9]: marked reduction
- activation (phosphorylation) of p38 [9]: decrease
- activation (phosphorylation) of pMAPK p44/42 [9]: decrease
- activation (phosphorylation) of pStat3 (Y705, S727) [9]: decrease
- activation (phosphorylation) of pStat5 (Y694) [9]: decrease
- c-myc protein level [9]: reduction
- cyclin D1 protein level [9]: reduction
- expression of β-catenin [9]: marked reduction
- total levels of these phosphorylated proteins [9]: not accompanied by any change
